From patent publication US20240374601A1, “METHODS AND COMPOSITIONS FOR TREATING CANCER” (Onconova Therapeutics, Inc., priority 2021, published 2024)

How the values were obtained:
ovarian cancer cells = assay: Growth of ovarian cancer cell lines; assay type: cell-based
[1] = Myelosuppression and neutropenia in preclinical models; details: in comparison to Comparator-1
breast cancer cells = assay: Growth of cancer cell lines resistant to Comparator-1; assay type: cell-based; details: breast cancer cells resistant to Comparator-1
Neutropenia, FIG. 2 = assay type: cell-based; details: ovarian cancer cell line; compared to Comparator 1
prostate cancer cells = assay: Growth of cancer cell lines resistant to Comparator-1; assay type: cell-based; details: prostate cancer cells resistant to Comparator-1

With `CN1CCN(c2ccc(Nc3ncc4cc(C#N)c(=O)n(C5CCCC5)c4n3)cc2)CC1` [Compound 1, 8-cyclopentyl-2-((4-(4-methylpiperazin-1-yl)phenyl)amino)-7-oxo-7,8-dihydropyrido[2,3-d]pyrimidine-6-carbonitrile] the “inhibition of ovarian cancer cell line growth (FIG. 3)” value (ovarian cancer cells; compared to Comparator 1) was “higher inhibition”, the “growth of cancer cell lines” value (ovarian cancer cells; ovarian cancer cells resistant to Comparator-1) was “inhibited growth” and the myelosuppression [1] was “less myelosuppression”. For the same molecule, the neutropenia [1] was “less neutropenia”, the “growth of cancer cell lines” value (breast cancer cells) was “inhibited growth” and the “neutropenia (FIG. 2)” value (Neutropenia, FIG. 2) was “reduced neutropenia”. For the same molecule, the “growth of cancer cell lines” value (prostate cancer cells) was “inhibited growth”.
